Test system: Saccharomyces cerevisiae ABC16-Green Monster
Conditions: 18 h; 30 °C; YPD
Method in brief: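 Log-phase cultures of the drug-sensitive S. cerevisiae ABC16-Green Monster strain in YPD were dispensed at 200 µl per well into 96-well plates. They were exposed to eight 1:2 compound dilutions (final 0.1–150 μM) in biological duplicate, with untreated cultures in parallel, at 30 °C for 18 h. OD600 was read at 0 h and 18 h. IC50 was fitted to the background-subtracted OD600 by variable-slope nonlinear regression of log(inhibitor) versus response in GraphPad Prism.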

SMILES	IC50 growth inhibition
Cc1c(N)nc(C(CC(N)=O)NCC(N)C(N)=O)nc1C(=O)NC(C(=O)NC(C)C(O)C(C)C(=O)NC(C(=O)NCCc1nc(-c2nc(C(=O)NCCC[S+](C)C)cs2)cs1)C(C)O)C(OC1OC(CO)C(O)C(O)C1OC1OC(CO)C(O)C(OC(N)=O)C1O)c1cnc[nH]1 (configuration not stated) [Bleomycin (JP1)]	> 75 µM
CCCCCC(=O)N[C@H](C(=O)N[C@@H](CCS(C)(=O)=O)C(=O)N[C@@H](CC(C)C)C(=O)[C@@]1(C)CO1)C(C)C [Carmaphycin B]	24.8 µM
COC1=C2CC(C)CC(OC)C(O)C(C)C=C(C)C(OC(N)=O)C(OC)C=CC=C(C)C(=O)NC(=CC1=O)C2=O (configuration not stated) [Geldanamycin]	> 75 µM
C[C@]1(O)C[C@@H](c2nc(-c3ccc4ccc(-c5ccccc5)nc4c3)c3c(N)nccn32)C1 [Linsitinib]	16 µM
Clc1cccc(Nc2ncc(-c3ccc4c(c3)OCCCO4)s2)c1	15.4 µM
COc1cc(CNC(=O)CCCCC=CC(C)C)ccc1O [Capsaicin]	> 150 µM
CC(c1ncncc1F)C(O)(Cn1cncn1)c1ccc(F)cc1F (configuration not stated) [Voriconazole]	0.18 µM
COC1CC2CCC(C)C(O)(O2)C(=O)C(=O)N2CCCCC2C(=O)OC(C(C)CC2CCC(OCCO)C(OC)C2)CC(=O)C(C)C=C(C)C(O)C(OC)C(=O)C(C)CC(C)C=CC=CC=C1C (configuration not stated) [Everolimus]	0.0415 µM
Cc1ccc2c(Br)cc(Br)c(OC(=O)c3ccccc3)c2n1 [Broxaldine]	2.24 µM
CCN(CC)S(=O)(=O)c1ccc(C(=O)Nc2cc(C)nn2-c2nc(C)c(C)c(=O)[nH]2)cc1	68.4 µM
c1csc(-c2cnc3sc(NCC4CCOCC4)nn23)c1	2.98 µM
CNC1CC2OC(C)(C1OC)n1c3ccccc3c3c4c(c5c6ccccc6n2c5c31)C(=O)NC4 (configuration not stated) [Staurosporine]	0.206 µM
COc1cc(OC)cc(C(=O)NCC2Cc3cc(Cl)cc(-c4ccncc4)c3O2)c1 (configuration not stated)	14.4 µM
CNC(=O)c1cc(Oc2ccc(NC(=O)Nc3ccc(Cl)c(C(F)(F)F)c3)cc2)ccn1 [Sorafenib]	4.27 µM
CCCc1cc(N2CCN(C)CC2)n2ncc(-c3ccccc3)c2n1	47 µM
Cc1cc(C(=O)Cn2c(CO)nc3ccccc32)c(C)n1-c1ccccc1	62.4 µM
CCC(C)(C)c1ccc(OCCOCC[n+]2ccccc2)c(C(C)(C)CC)c1.[Cl-] [GNF-Pf-1618]	2.19 µM
CC(=O)NCC1CN(c2ccc(-c3ccc(CNCc4cn[nH]n4)cc3)c(F)c2)C(=O)O1 (configuration not stated) [Radezolid]	> 75 µM
C=CCC1C=C(C)CC(C)CC(OC)C2OC(O)(C(=O)C(=O)N3CCCCC3C(=O)OC(C(C)=CC3CCC(O)C(OC)C3)C(C)C(O)CC1=O)C(C)CC2OC (configuration not stated) [Tacrolimus/FK-506]	> 75 µM
Nc1ccc(C(=O)Nc2ccc(-c3nc4ccccc4o3)cc2)cc1	19 µM
COC1OC2OC3(C)CCC4C(C)CCC(C1C)C24OO3 (configuration not stated) [Artemether]	70.6 µM

SMILES	IC50 growth inhibition
Cc1cc(C)n(-c2ccc3c(Cl)cc(Cl)c(O)c3n2)n1	71.3 µM
FC(F)(F)c1cccc(Nc2nc3ccccc3nc2Nc2cccc(C(F)(F)F)c2)c1	1.6 µM
N#CC(C#N)=NNc1cc(Cl)cc(Cl)c1	20.6 µM
Cc1c(C)n(CCCN(C)C)c2ncn3nc(COc4ccccc4)nc3c12	39.6 µM
COc1cc(C=Cc2ccc(O)cc2)cc(OC)c1 [Pterostilbene]	29.4 µM
COc1cc2c(c(OC)c1OC)-c1ccc(OC)c(=O)cc1C(NC(C)=O)CC2 (configuration not stated) [Colchicine]	> 75 µM
Cc1cc(=O)[nH]c(-n2nc(C3CC3)cc2NC(=O)C2(c3ccc(Cl)cc3)CCCC2)n1 [CBR668]	1.93 µM
CCCCCc1nnc(NC(=O)c2nccnc2N)s1	74.2 µM
O=C1c2ccccc2C2=Nc3ccccc3SC(c3ccccc3F)C12 (configuration not stated) [GNF-Pf-3582]	5.87 µM
CN1CCCN=C1C=Cc1cccs1.O=C(O)c1cc2ccccc2c(Cc2c(O)c(C(=O)O)cc3ccccc23)c1O [Pyrantal Pamoate]	> 75 µM
Br.Cc1ccnc(Nc2nc(-c3ccccn3)cs2)c1 [GNF-Pf-4739]	4.6 µM
Cc1cc(NCCc2ccccc2)nc(NC(=N)Nc2ccc(Cl)cc2)n1	53.8 µM
CC(C)(C)n1nc(Cc2cccc3ccccc23)c2c(N)ncnc21	27.6 µM
O=C(Nc1cc(Oc2cc(F)c(NC(=O)C3(C(=O)Nc4ccc(F)cc4)CC3)cc2F)ccn1)C1CC1 [Altiratinib]	> 75 µM
Nc1ncnc2c1ncn2CC(O)C(O)C(=O)O (configuration not stated) [Eritadenine]	> 75 µM
CC(C)c1ccc(C2C3CCc4ccccc4C3=NN2CCO)cc1 (configuration not stated)	49.9 µM
CC1=NN(c2nc3ccccc3[nH]2)C(=O)C1Cc1ccccc1 (configuration not stated) [CBR110]	3.48 µM
c1ccc(Oc2ccc(-c3cc(C4CCOCC4)[nH]n3)cc2)cc1	55.6 µM
CCC(=C(c1ccc(O)cc1)c1ccc(OCCNC)cc1)c1ccccc1 [Endoxifen]	8.3 µM
Cc1cc(C)nc(-n2nc(C)cc2Nc2ccccc2)n1	42.1 µM
CCS(=O)(=O)c1ncc(Cl)c(C(=O)Nc2ccc(C(=O)OC)cc2)n1	17.4 µM

SMILES	IC50 growth inhibition
Cc1cc(Nc2cccc(F)c2)nc(NCc2ccccc2)n1	21.9 µM
CC[P](CC)(CC)=[Au][S][C@H]1O[C@@H](COC(C)=O)[C@H](OC(C)=O)[C@@H](OC(C)=O)[C@@H]1OC(C)=O	28.2 µM
Cc1nc([P+](c2ccccc2)(c2ccccc2)c2ccccc2)c(N2CCCCC2)o1 [GNF-Pf-445]	9.44 µM
O=C(COc1cccc(F)c1)Nc1nc(-c2ccccn2)cs1	35.1 µM
CC1=NN(c2nc3ccccc3s2)C(=O)C1Cc1cccc2ccccc12 (configuration not stated)	40.7 µM
Cc1cc(NC(=O)C(C)C)n(-c2nc(C)c(C)c(=O)[nH]2)n1	3.87 µM
N#C/C(=C\c1cn(Cc2ccccc2)nc1-c1cccnc1)c1nc2ccccc2[nH]1	138 µM
O=C1Nc2ccc(F)cc2/C1=N/NC(=S)NC1CC2C=CC1C2 (configuration not stated)	55.9 µM
CC(C)(C)c1ccc(NC(=O)c2ccc[nH]c2=S)cc1	25.4 µM
Cc1cc(N(C)Cc2ccccc2Br)nc(N)n1	52.6 µM
Cc1nc(-c2ccccn2)nc(N(C)CCc2ccccc2)c1Cl	43.3 µM
Cc1ccc(Oc2ccc(NC(=O)CNc3ccccc3N3CCCC3=O)cc2)cc1	31.5 µM
COc1cc(C2c3cc4c(cc3C(OC3OC5COC(C)OC5C(O)C3O)C3COC(=O)C23)OCO4)cc(OC)c1O (configuration not stated) [Etoposide]	23.6 µM
Clc1ccc(Cl)c(CO[C@H]2CCCC[C@@H]2n2ccnc2)c1	68.6 µM
CCC(C)n1ncn(-c2ccc(N3CCN(c4ccc(OCC5COC(Cn6cncn6)(c6ccc(Cl)cc6Cl)O5)cc4)CC3)cc2)c1=O (configuration not stated) [Itraconazole]	7.53 µM
C=C1[C@@H](C)[C@H]2[C@H](Cc3ccccc3)NC(=O)[C@]23OC(=O)/C=C/[C@H](O)CCC[C@@H](C)C/C=C/[C@H]3[C@@H]1O [Cytochalasin B]	> 75 µM
OCCNc1nc(Nc2ccc(Cl)c(Cl)c2)nc2ccccc12	14 µM
COc1cccc(-n2nnnc2S(=O)(=O)Cc2ccccc2)c1	16.1 µM
CCCOC(=O)C1=C(C)NC2=C(C(=O)CC(c3ccc(OC)c(OC)c3)C2)C1c1ccc(Cl)cc1Cl (configuration not stated) [GNF-Pf-5672]	5.08 µM
CCS(=O)(=O)c1ncc(Cl)c(C(=O)Nc2cc(Cl)cc(Cl)c2)n1	6.66 µM
COc1cc(NC(C)CCCN)c2ncccc2c1 (configuration not stated) [Primaquine]	107 µM

SMILES	IC50 growth inhibition
Cc1ccc2c(c1C)NC(=O)C21NN=C(c2ccccc2)S1 (configuration not stated)	10.2 µM
Cc1ccc(Nc2nc(N)nc(CN(C)Cc3nc(=O)c4ccccc4[nH]3)n2)cc1	32.3 µM
C=CCn1c(C)cc(C(=O)CSc2nc3ccccc3[nH]2)c1C	4.24 µM
COC(=O)C1=C(C)NC(C)=C(C(=O)OC(C)C)C1c1cccc2nonc12 (configuration not stated)	65.4 µM
FC(F)c1nc2ccccc2n1-c1nc(N2CCOCC2)nc(N2CCOCC2)n1 [ZSTK-474]	52 µM
COc1ccc(-c2cnc3ccc(N4CCCC4)nn23)cc1OC	68.5 µM
Brc1cncc(-c2cc(NCCCn3ccnc3)nc(-c3ccccc3)n2)c1	23.9 µM
COc1ccc(C2CC(c3cccs3)=NN2C(=O)c2ccco2)cc1OC (configuration not stated)	83.6 µM
CCCC(CCC)C(=O)O [Valproic acid]	> 75 µM
O=C1CCC(N2C(=O)c3ccccc3C2=O)C(=O)N1 (configuration not stated) [Thalidomide]	> 75 µM
O=C(Nc1nnc(-c2ccc(Cl)cc2)o1)c1cccc(C(F)(F)F)c1	71.2 µM
CCCCc1ccc(C(=O)Nc2nccc3ccccc23)nc1	54.7 µM
COc1cc(N2CCC(N3CCN(C)CC3)CC2)ccc1Nc1ncc(Cl)c(Nc2ccccc2P(C)(C)=O)n1 [Brigatinib]	> 75 µM
FC(F)(F)c1cccc(-c2nc3c(NCc4ccncc4)nccc3[nH]2)c1	41.6 µM
COc1cccc2c1C(=O)c1c(O)c3c(c(O)c1C2=O)CC(O)(C(=O)CO)CC3OC1CC(N)C(O)C(C)O1 (configuration not stated) [Doxorubicin]	11.2 µM
COC(=O)C1=C(C)NC(C)=C(C(=O)OC(C)C)C1c1cccc2nonc12 (configuration not stated) [Israpidine]	> 150 µM
CCC(NC(=O)c1ccccc1NC(=O)c1ccc(C)cc1)C(=O)OC (configuration not stated)	31.7 µM
COc1ccc2nc3cc(Cl)ccc3c(N(C)CCc3ccc(OC)c(OC)c3)c2c1	27.2 µM
CCOc1ccc(-c2nc(CNCCc3ccc(F)cc3)cs2)cc1	42.5 µM

— the supplement of paper PMC8837787
